Measured values taken from patent US12433858B2, “Substituted cycloalkanes for managing nephrogenic diabetes insipidus” (NephroDI Therapeutics, Inc., priority 2017, dated 2025).
Entries after “also recorded” stand apart in the source; their conditions may differ.

Legend:
[1] = system: Tolvaptan induced NDI rats; experiment: Tolvaptan-induced NDI rat model, urine concentration; type: in vivo
Method: Rats were given tolvaptan to induce NDI. Tolvaptan binds to and blocks the vasopressin type 2 receptor (V2R) and renders the animals insensitive to vasopressin-induced antidiuresis. The efficacy of three compounds of Formula I were evaluated. Each rat was gavage fed with 10 mg/kg/day of tolvaptan in the carrier solution (1% hydroxypropylmethyl cellulose in water) for 3 days to prepare the NDI model. The drugs were added to the gavage feeding solution and delivered daily for 4 days (NDI-5001, 200 mg/kg/day; NDI-5033 or NDI-5037, 50 mg/kg/day). Control rats were sham gavage fed.
(§1) NDI-5033 was tested to determine an initial time course and sustainability of the anti-diuretic response. Rats were given tolvaptan to initiate NDI. They were then fed 100 mg/kg/day with NDI-5033 for 3 days (FIG. 2A). […] To ensure that the observed efficacy is not compromised by potential binding of NDI-5033 to V2R, NDI-5033 was given to mice in which the V2R was genetically knocked out yielding a genetic model of NDI (FIG. 2B). Control mice received no drug. NDI-5033 was given by injection to the mice and 24-hour urine collected and assessed for urine osmolality. NDI-5033 produced a 50% improvement in urine concentration.
(§2) Tolvaptan induced NDI rats were prepared and fed with doses of NDI-5033 from 0 to 100 mg/kg/day in a series of experiments. […] To confirm the effectiveness of the 25 mg/kg/day dose, NDI-5033 was given to V2R knock-out NDI mice and 24-hour urines were assessed for urine osmolality (FIG. 3B). The osmolality was increased in NDI mice after treatment with 25 mg/kg/day of NDI-5033.
(§3) An experiment was designed to approximate hypoglycemia in the tolvaptan-treated rat NDI model to look for hypoglycemia. A timeline for the experiment is illustrated in FIG. 4A. The rats were given tolvaptan beginning Day negative 3. On Day zero half of the rats started to receive 25 mg/kg/day of NDI-5033. After observing an improvement in the urine concentration, the animals were exercised daily for 5 days. Food was removed from the animals and NDI-5033 was given, then 4 hours later rats were subjected to 30 minutes of treadmill running. Blood glucose measurements were taken before and after the bout of exercise. Food was restored. The process was repeated daily for 5 days. The average urine osmolality and urine volumes in the NDI rats not receiving NDI-5033 (control) or receiving 25 mg/kg/day NDI-5033 is shown in FIG. 4B. Urine osmolality was increased (p<0.05) and urine volume decreased (p<0.07) upon drug treatment. […] For each day, patterned bars are from rats not receiving NDI-5033. The leftmost bar (diagonal) is before and to the right is after exercise. The next two bars show blood glucose values for rats receiving NDI-5033. Solid black is before and solid white is after exercise.

V2R knock-out NDI mice = experiment: V2R knock-out mouse genetic model of NDI, 24-hour urine osmolality; type: in vivo
Method: as §1, §2

[2] = Hypoglycemia evaluation on chronic dosing in exercised tolvaptan-treated NDI rats (blood glucose); type: in vivo, rat; details: 25 mg/kg/day, daily for 5 days
Method: as §3

[3] = 100 mg/kg/day for 3 days, tolvaptan NDI rats
[4] = food removed, 30 minutes treadmill 4 hours after dose

Compound | urine osmolality as percent of the normal animal ([1]; tolvaptan 10 mg/kg/day by gavage for 3 days, NDI induction) | average urine osmolality (in words) ([1]; 25 mg/kg/day versus control NDI rats, exercise study, p<0.05, FIG. 4B) | average urine volume (in words) ([1]; 25 mg/kg/day versus control NDI rats, exercise study, p<0.07, FIG. 4B) | duration for which anti-diuretic response is sustained [1, 3] [days] | time to anti-diuretic effect after initial treatment [1, 3] [h] | urine concentrating ability (urine osmolality) as percent of untreated, fully concentrating rats (basal, set to 100%) ([1]; NDI-5033 50 mg/kg/day by gavage daily for 4 days, after tolvaptan 10 mg/kg/day for 3 days) | dose showing statistically significant improvements in urine concentrations ([1]; dose response 0 to 100 mg/kg/day, FIG. 3A) [mg/kg/day] | urine osmolality (in words) ([1]; dosed with NDI inducing agent tolvaptan, FIG. 2A, 100 mg/kg/day for 3 days) | efficacy / urine concentrating ability (in words) ([1]; gavage daily for 4 days, NDI-5001 200 mg/kg/day, NDI-5033 or NDI-5037 50 mg/kg/day, tolvaptan NDI rats) | urine osmolality (in words) (V2R knock-out NDI mice; 25 mg/kg/day, 24-hour urines, FIG. 3B) | improvement in urine concentration (V2R knock-out NDI mice; given by injection, 24-hour urine, versus control mice receiving no drug) [%] | hypoglycemia ([2]; exercised NDI rats) | blood glucose before versus after exercise [2, 4] | blood glucose relative to normal range for rats [2, 4]
Cc1ccccc1C(=O)Nc1ccc(C(=O)N2CCCC(O)c3cc(Cl)ccc32)c(C)c1 (centres unmarked) [tolvaptan, reference compound] | 10 % of the normal animal | – | – | – | – | – | – | – | – | – | – | – | – | –
NC(=O)C1(CCCCCCCCCCCCC2(C(N)=O)CC2)CC1 [NDI-5033, 1,1′-(dodecane-1,12-diyl)bis(cyclopropane-1-carboxamide)] | – | increased | decreased | 3 | ≤ 24 | 75 % of normal | ≥ 10 | increases urine osmolality | improve urine concentrating ability | increased | 50 | no evidence of hypoglycemia; also recorded: do not experience hypoglycemia | no statistical difference | within the normal range
